The values below are quoted from earlier work in PMC8497432 (ChemMedChem, 2021).

For this data set the following is noted: ref 6f.

On to UNC3866, for which the cell permeability result was “approximately 5%”.
